According to US20190284129A1, “LIPID COMPOUNDS AND COMPOSITIONS AND THEIR OPTHALMIC USE” (BIOZEP AS, priority 2015, published 2019):

What was measured:
human PPARalpha receptor = target: T1, human PPARalpha receptor (Homo sapiens, UniProt Q07869); test: cellular GAL4 reporter gene assay (M1H) in HEK293 cells, PPARalpha; assay type: cell-based; settings: agonist mode
T1 construct: expressed in transfected cells; host or cells: HEK293 (DSMZ ACC 305)
T1 sequence (Q07869 239-466 limits assumed): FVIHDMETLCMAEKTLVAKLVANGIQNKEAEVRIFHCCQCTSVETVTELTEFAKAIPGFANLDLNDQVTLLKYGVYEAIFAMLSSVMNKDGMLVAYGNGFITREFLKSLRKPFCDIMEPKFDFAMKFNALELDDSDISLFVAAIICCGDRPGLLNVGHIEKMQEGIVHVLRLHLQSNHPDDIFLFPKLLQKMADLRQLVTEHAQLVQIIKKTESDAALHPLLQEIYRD
Experimental: The compounds BIZ-102 (Example 2), BIZ-103 (Example 5) and BIZ-106 were tested at the human PPARalpha receptor in a cellular GAL4 Reporter gene assay. The assay was run in agonist and antagonist mode to detect agonistic as well as antagonistic activities of the tested compounds.
Performance of the GAL4 cellular reporter assay:
Day 1: Cells were seeded in 96 well plates in plating medium (MEM with serum), incubation overnight at 37° C., 5% CO2.
Day 2: Removal of plating medium
Addition of PEI-based transfection agent
Incubation for 4-6 hours at 37° C., 5% CO2
Addition of assay medium (MEM with serum)
Addition of compounds (dilution series was generated in MEM with serum)
Incubation overnight at 37° C., 5% CO2
Day 3: Removal of assay medium (16-20 hours after compound addition)
Addition of Passive Lysis Buffer (Promega)
15 mins incubation at room temperature
Addition of luciferase buffers and measurement in a dual-flash procedure
(§1) The assays were done in HEK293 cells (DSMZ ACC 305). The plasmids used in the GAL4 assay system were derivatives of Stratagene's M2H plasmids: the reporter plasmid pFR-Luc (containing a synthetic promoter with five tandem repeats of the yeast GAL4 binding sites that control expression of the Photinus pyralis (American firefly) luciferase gene), and pCMV-BD (for fusions of nuclear receptor ligand binding domains to the DNA-binding domain of the yeast protein GAL4). In order to improve experimental accuracy, a second reporter—Renilla reniformis luciferase, driven by a constitutive promoter—was included as an internal control. Using the control reporter (Renilla Luciferase) allowed corrections for variations in experimental handling, e.g. transfection efficacy, cell viability, pipetting errors, cell lysis efficiency and assay efficiency.
Primary read out of the assays was loaded into PhAST (Phenex Assay and Screening Tool) and checked for assay quality (generation of SB and Zprime values). […] Within PhAST there are two measured and one calculated data layers:
LAYER1 (measured)—contains the activity values of the firefly luciferase activities and is a direct measure for modulation of the cofactor binding properties of the Nuclear Receptors by the tested compounds.
LAYER2 (measured)—contains the activity values of the renilla luciferase activities and is used as normalisation layer. As the renilla luciferase is expressed under control of the constitutively active CMV promoter, moderate well-to-well differences can be used to correct for variations in experimental handling.
LAYER3 (calculated)—is calculated according to the following equation: […]
1000*Firefly luciferase value/Renilla luciferase value
These normalised values are, as well as LAYER1, a measure for the modulation of the cofactor binding properties of the nuclear receptors by the tested compounds.

human PPARbeta/delta = target: T2, human PPARbeta/delta (Homo sapiens, UniProt Q03181); test: cellular GAL4 reporter gene assay, agonist mode, PPARbeta/delta; assay type: cell-based
T2 construct: expressed in transfected cells; host or cells: HEK293 (DSMZ ACC 305)
T2 sequence (Q03181 211-439 limits assumed): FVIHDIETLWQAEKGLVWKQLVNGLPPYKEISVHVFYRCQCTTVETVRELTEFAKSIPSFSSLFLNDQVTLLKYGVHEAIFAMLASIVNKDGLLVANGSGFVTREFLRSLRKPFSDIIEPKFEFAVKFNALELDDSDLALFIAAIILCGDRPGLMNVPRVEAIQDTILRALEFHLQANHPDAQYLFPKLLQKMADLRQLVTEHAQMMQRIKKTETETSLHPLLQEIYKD
Source text: as §1, with “M2H” left out, “reporter-Renilla” for “reporter—Renilla”, “promoter-was” for “promoter—was”, “efficiency. […] The compounds BIZ-102 and BIZ-103 were tested at the human PPARbeta/delta and PPARgamma receptors using the same cellular GAL4 Reporter gene assays as in Example 6. The assays were run in agonist mode to detect agonistic activities of the tested compounds.” for “efficiency.”

CCCCC/C=C\C/C=C\C/C=C\C/C=C\CCC(CC)C(=O)O (centres unmarked) [BIZ-102, (All-Z) 2-ethyl-5,8,11,14-eicosatetraenoic Acid]
Efficacy vs. Fenofibric Acid (human PPARalpha receptor; HEK293): 45% | Efficacy vs. GW7647 (human PPARalpha receptor; HEK293): 150% | EC50 (human PPARalpha receptor; HEK293, GAL4 reporter): 350 nM | EC50 (human PPARbeta/delta): 4300 nM | PPARbeta/delta efficacy vs. GW501516 (human PPARbeta/delta): 20%
